The values below come from EP0041021A2, “Cyclopropane carboxylic acid derivatives, their preparation, their use against parasites in plants and animals, their compositions and their intermediates” (ROUSSEL-UCLAF, priority 1980, dated 1981).

One series concerns mouche domestique. The series can be described thus: Knock-down activity on housefly, direct spray in Kearns and March cylinder. Format: in vivo. The following applies: acetone (5%) + Isopar L. The procedure: Exemple 4 : Etude de l'activité de choc sur mouche domestique.
Les insectes tests sont des mouches domestiques femelles âgées de 4 à 5 jours. On opère par pulvérisation directe en cylindre de Kearns et March en utilisant comme solvant un mélange d'acétone (5%) et d'Isopar L (solvant pétrolier) (quantité de solvant utilisée 2 ml en une seconde). On utilise 50 insectes par dose. On effectue les contrôles toutes les minutes jusqu'à 10 minutes, puis à 15 minutes et l'on détermine le KT 50 par les méthodes habituelles.

In a further series the test system is moustiques Culex pipiens. Put plainly: Insecticidal activity on Culex pipiens mosquitoes, fumigant coil. The following applies: fumigant coil, 0,60% active ingredient by weight of coil. In kind it is in vivo. The procedure:
Exemple 6 : Etude de l'activité insecticide. sur moustiques Culex pipiens, du composé ce l'exemple 1 utilisé sous forme de serpentin fumigène.
Des supports neutres de serpentins fumigènes sont imprégnés de matière active en solution dans l'acétone. On lâche dans un cylindre fermé, en verre, de 13,50 dm3, 20 moustiques femelles agées de 4 à 5 jours et intrcduit, pendant 2 minutes, un serpentin fumigène se consumant à une extrémité. On effectue le contrôle de knock-down toutes les minutes et arrête 1.essai 5 minutes après que tous les insectes aient été abattus.

Each structure is given as a SMILES string.

`C=CCC1=C(C)[C@@H](OC(=O)[C@@H]2[C@H](/C=C\C(=O)OC)C2(C)C)CC1=O` [Exemple 1, (R cis ΔZ) 2,2-diméthl-3/ 3-méthoxy-oxo-1-propenyl/cyclopropane carboxylatede (1S) 2-méthyl-4-oxo 3-(2-propenyl)-2-cyclopenten-1-yle]: the “KT 50” value is 1,26 mn in the series with mouche domestique (concentration 0,5 g/litre) and 2,02 mn in the series with mouche domestique (concentration 0,25 g/litre). In the series with moustiques Culex pipiens, the “effet létal” value is listed as 98,3%. The “ET 50” value in the series on moustiques Culex pipiens (20 female mosquitoes, 13,50 dm3 cylinder) is recorded as 5,42 mn.
